Here are results for three molecules from patent US9120815B2, “Solid state forms of macrocyclic kinase inhibitors” (Tragara Pharmaceuticals, Inc., priority 2010, dated 2015).

Common to all, as to assay type: physicochemical
Data set [1] is described as follows: Stability in humidity chamber 40° C./75% R.H. (XRPD, HPLC). The note with it: 2 weeks. How it is done:
After 2 days, the solids were isolated by filtration under vacuum at RT to be characterised by XRPD analysis. Each new crystalline solid phase detected was characterised by ^1H NMR and TGA-DSC analyses in order to determine if salt formation had occurred and whether the material was a solvate. At this stage, each salt identified was then analysed by HPLC to determine the chemical purity prior to being stored in the humidity chamber (40° C./75% R.H.) to assess its stability.

Data set [2] can be described thus: Thermodynamic aqueous solubility. How it is done: Aqueous solubility was determined by suspending sufficient compound in water to give a maximum final concentration of 210 mg·ml^−1 of the parent free-form of the compound. The suspension was equilibrated at 25° C. for 24 hours then the pH was measured. The suspension was then filtered through a glass fibre C filter into a 96 well plate. The filtrate was then diluted by a factor of 101. Quantitation was by HPLC with reference to a standard solution of approximately 0.1 mg·ml^−1. in DMSO. Different volumes of the standard, diluted and undiluted sample solutions were injected. The solubility was calculated using the peak areas determined by integration of the peak found at the same retention time as the principal peak in the standard injection.
Analysis was performed on an Agilent HP1 100 series system equipped with a diode array detector and using ChemStation software vB.02.01-SR1.

Data set [3] in a line: Gravimetric Vapour Sorption (GVS) at 25° C. As to conditions: citrate. How it is done:
Sorption isotherms were obtained using a SMS DVS Intrinsic moisture sorption analyser, controlled by SMS Analysis Suite software. The sample temperature was maintained at 25° C. by the instrument controls. The humidity was controlled by mixing streams of dry and wet nitrogen, with a total flow rate of 200 ml.min^−1. The relative humidity was measured by a calibrated Rotronic probe (dynamic range of 1.0-100% RH), located near the sample. The weight change, (mass relaxation) of the sample as a function of % RH was constantly monitored by the microbalance (accuracy ±0.005 mg). Typically 5-20 mg of sample was placed in a tared mesh stainless steel basket under ambient conditions. The sample was loaded and unloaded at 40% RH and 25° C. (typical room conditions). A moisture sorption isotherm was performed as outlined below (2 scans giving 1 complete cycle). The standard isotherm was performed at 25° C. at 10% RH intervals over a 0.5-90% RH range. The sample was recovered after completion of the isotherm and re-analysed by XRPD.

A short description of data set [4]: Polymorph screen: maturation in solvents, XRPD. As to conditions: for XPRD Characterisation after maturation: 3 days. How it is done:
An initial polymorphism screen was performed for the fumarate and citrate salts using 10 common class II and III organic solvents (with and without addition of water), plus pure water. […] The samples were subjected to a series of heat/cool cycles (room temp […], 8 hour cycles). After 3 days, the samples were filtered and the solids were characterised by XRPD analysis.

The nature of data set [5]: Stability study: rate of hydration of anhydrous polymorph in methocel/Tween 80 test medium, XRPD. As to conditions: for Time points where transformation was observed: no seeds. The procedure: Test medium was prepared by dissolving methocel (4 g) in water (196 mL) to afford a 2% (w/w) solution. After stirring for 12 hours to ensure a homogenous solution is obtained, Tween 80 (800 mg) and water (600 mL) was added and the mixture stirred for an additional 12 hours to homogenise.
Test medium (30 mL) was added and each sample was maturated at the indicated temperature and condition (−20° C., 4° C., room temperature with stirring and room temperature without stirring). […] The samples were monitored over time by XRPD to determine the rate of hydration of the anhydrous polymorph.
Test medium (5 mL) was added and each sample was maturated at the indicated temperature and condition (−20° C., 4° C., room temperature with stirring and room temperature without stirring). […] The samples were monitored over time by XRPD to determine the rate of hydration of the anhydrous polymorph.

The nature of data set [6]: Solid state stability at ambient conditions.

Entries after “also recorded” stand apart in the source; their conditions may differ.

Take `CN1CC=CCCOc2cccc(c2)C2=CC=NC(=Nc3cccc(c3)C1)N2.O=S(=O)(O)c1ccccc1` [Besylate Pattern 1, 14-methyl-20-oxa-5,7,14,27-tetraazatetracyclo-[19.3.1.12,6.18,12]heptacosa-1(25),2,4,6,8,10,12(26),16,21,23-decaene besylate]: the “XPRD stability after 40° C./75% RH 2 weeks” value in data set [1] (besylate) is recorded as “stable”; in data set [1] (listed as Besylate pattern 1, besylate), “No change”.
`CN1CC=CCCOc2cccc(c2)C2=CC=NC(=Nc3cccc(c3)C1)N2.O=C(O)CC(O)(CC(=O)O)C(=O)O` [Citrate Pattern 1, 14-methyl-20-oxa-5,7,14,27-tetraazatetracyclo-[19.3.1.12,6.18,12]heptacosa-1(25),2,4,6,8,10,12(26),16,21,23-decaene citrate] had a solubility at 24 h in data set [2] (25 °C, thermodynamic from solid, water) of 160 µg/mL. Further, the “final pH” value in data set [2] (pH of the aqueous suspension after equilibration) is 3.94. The molecule further displayed an aqueous solubility in data set [2] (water, 25° C., 24 hours) of 160 µg/mL. The “XPRD stability after 40° C./75% RH 2 weeks” value in data set [1] (citrate) is “not sensitive to humidity; also recorded: no transformation; also recorded: crystallinity, and no change was observed after”; in data set [1] (listed as Citrate pattern 1, citrate), “No change”. Besides, the “changes in the XRPD pattern after the GVS experiment” value in data set [3] was “no transformation; also recorded: between 0 and 90% relative humidity. No”. Also, the “XPRD Characterisation after maturation” value in data set [4] (Acetone, w/ water (5% v/v)) is “Citrate Pattern 1”; in data set [4] (Acetone, w/o water), “Citrate Pattern 1”; in data set [4] (Acetonitrile, w/ water (5% v/v)) it was “Citrate Pattern 2”; in data set [4] (Acetonitrile, w/o water), “Citrate Pattern 1”; in data set [4] (DCM, w/ water (5% v/v)), “Citrate Pattern 3”; in data set [4] (DCM, w/o water, RT-50° C. cycles) it was “Citrate Pattern 1”. The “XPRD Characterisation after maturation” value was “Citrate Pattern 1” in data set [4] (EtOH, w/ water (5% v/v)); “Citrate Pattern 1” in data set [4] (EtOH, w/o water); “Citrate Pattern 2” in data set [4] (Ethyl acetate, w/ water (5% v/v)); “Citrate Pattern 1” in data set [4] (Ethyl acetate, w/o water); “Citrate Pattern 1” in data set [4] (IPA, w/ water (5% v/v)); “Citrate Pattern 1” in data set [4] (IPA, w/o water). Further, the “XPRD Characterisation after maturation” value is given as “Citrate Pattern 2” in data set [4] (TBME, w/ water (5% v/v)); “Citrate Pattern 1” in data set [4] (TBME, w/o water); “Citrate Pattern 2” in data set [4] (THF, w/ water (5% v/v)); “Citrate Pattern 1” in data set [4] (THF, w/o water); “Citrate Pattern 2” in data set [4] (Toluene, w/ water (5% v/v)); “Citrate Pattern 1” in data set [4] (Toluene, w/o water). Besides, the “XPRD Characterisation after maturation” value is given as “Citrate Pattern 2” in data set [4] (nitromethane, w/ water (5% v/v)); “Citrate Pattern 1” in data set [4] (nitromethane, w/o water); “Citrate Pattern 2” in data set [4] (pure water). The “transformation after 3 days of maturation in dried solvents” value in data set [4] (dried solvents) is “No transformation”. Also, the kinetics of hydration result in data set [5] (comparison of citrate and fumarate salts) is “slower than for the fumarate salt”. Besides, the “Time points where transformation was observed” value in data set [5] (1 mg/mL, 4° C.) is “No”; in data set [5] (1 mg/mL, 20-25° C. (under stirring)) it was 120 h; in data set [5] (1 mg/mL, 20-25° C. (without stirring)) it was “Clear Solution”; in data set [5] (1 mg/mL, −20° C.) it was “No”; in data set [5] (10 mg/mL, 4° C.), “No”; in data set [5] (10 mg/mL, 20-25° C. (under stirring)) it was 48 h. Further, the “Time points where transformation was observed” value in data set [5] (10 mg/mL, 20-25° C. (without stirring)) was “No conversion”; in data set [5] (10 mg/mL, −20° C.), “No”. Moreover, the “stability in the solid state” value in data set [6] is “stable”.
For `CN1CC=CCCOc2cccc(c2)C2=CC=NC(=Nc3cccc(c3)C1)N2.O=C(O)/C=C/C(=O)O` [Fumarate Pattern 1, 14-methyl-20-oxa-5,7,14,27-tetraazatetracyclo-[19.3.1.12,6.18,12]heptacosa-1(25),2,4,6,8,10,12(26),16,21,23-decaene fumarate], the “XPRD stability after 40° C./75% RH 2 weeks” value in data set [1] (listed as Fumarate pattern 1, fumarate) is “No change”.

For orientation: solubility means how much of the substance goes into solution per volume. As a reminder, the aqueous solubility is the dissolved amount per volume that the medium holds.
